According to patent US20220054451A1, “2,3-DIHYDROBENZO[b]THIOPHENE DERIVATIVES AS HYPOXIA INDUCIBLE FACTOR-2(ALPHA) INHIBITORS” (NiKang Therapeutics, Inc., priority 2018, published 2022):

biological target: T1, HIF-2α (Homo sapiens, UniProt Q99814); assay: VEGF ELISA assay: VEGF expression in 786-O cells; format: cell-based; conditions: VEGF concentration in culture medium by ELISA, compounds from 10 uM down to 1 nM, treated twice, medium collected 24 hours after second treatment
T1 construct: endogenous in cells; host or cells: 786-O cells
Procedure: The ability of the disclosed compounds to inhibit HIF-2α was measured by determining VEGF expression in 786-O cells. About 7500 786-O cells were seeded into each well of a 96-well, white, clear bottom plate (07-200-566, Fisher Scientific) with 200 ul growth medium. Four hours later, compounds were dispensed into wells by Tecan D300e digital dispenser with starting concentration of 10 uM and ½ log of dilution down to 1 nM as final concentration. Each concentration of treatment was performed in duplicate. About 20 hours later, medium was removed and fresh medium was added, followed by compounds treatment as described above. 24 hours later, cell culture medium was collected to determine VEGF concentration using an ELISA kit (R&D systems, cat #DVE00) following the manufacturer's instruction.
The IC50 is calculated by GraphPad Prism using the dose-response-inhibition (four parameter) equation. The plate with cells was then subjected to CellTiter-Glo luminescence cell viability assay (Promega) to determine the effect of these compounds on cell numbers after the above treatment.

T1 sequence (Q99814 whole entry): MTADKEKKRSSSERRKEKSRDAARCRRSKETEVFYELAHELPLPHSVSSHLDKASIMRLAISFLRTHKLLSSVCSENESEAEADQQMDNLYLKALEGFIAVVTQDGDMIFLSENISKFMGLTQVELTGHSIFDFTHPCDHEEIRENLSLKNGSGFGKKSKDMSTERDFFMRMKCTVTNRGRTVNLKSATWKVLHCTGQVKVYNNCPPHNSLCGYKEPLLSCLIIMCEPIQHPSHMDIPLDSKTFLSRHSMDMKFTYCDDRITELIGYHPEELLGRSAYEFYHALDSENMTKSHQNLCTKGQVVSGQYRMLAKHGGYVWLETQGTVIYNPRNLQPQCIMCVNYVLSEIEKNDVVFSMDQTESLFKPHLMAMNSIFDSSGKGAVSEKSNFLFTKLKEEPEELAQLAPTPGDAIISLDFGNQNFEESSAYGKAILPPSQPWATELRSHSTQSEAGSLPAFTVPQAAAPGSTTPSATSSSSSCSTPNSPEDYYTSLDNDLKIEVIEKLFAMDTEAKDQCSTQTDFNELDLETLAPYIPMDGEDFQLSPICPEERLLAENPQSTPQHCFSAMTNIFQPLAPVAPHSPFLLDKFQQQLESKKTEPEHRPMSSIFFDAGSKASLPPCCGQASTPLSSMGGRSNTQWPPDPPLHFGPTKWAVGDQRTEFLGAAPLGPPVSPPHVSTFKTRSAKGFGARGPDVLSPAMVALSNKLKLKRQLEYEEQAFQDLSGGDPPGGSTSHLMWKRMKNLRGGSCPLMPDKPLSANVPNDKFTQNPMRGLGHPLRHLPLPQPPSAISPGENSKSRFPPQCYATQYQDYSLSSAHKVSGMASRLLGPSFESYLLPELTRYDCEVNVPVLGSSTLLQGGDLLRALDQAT

Point of comparison: “a mixture of 3-fluoro-5-(((1R,3R)- 2,2,3-trifluoro-1-oxido-7- (trifluoromethyl)-2,3- dihydrobenzo[b]thiophen-4-yl)oxy) benzonitrile and 3-fluoro-5- (((1S,3S)-2,2,3-trifluoro-1- oxido-7-(trifluoromethyl)-2,3- dihydrobenzo[b]thiophen-4-yl) oxy)benzonitrile [Compound 27a]”, EC50 9400 nM. Against it:
- N#Cc1cc(F)cc(Oc2ccc3c(c2C(F)F)[S+]([O-])C(F)(F)C3(F)F)c1 (single isomer, unassigned) [Compound 13b] — 49-fold lower, 190 nM
- N#Cc1cc(F)cc(Oc2ccc3c(c2C(F)F)S(=O)(=O)C(F)(F)C3(F)F)c1 [Compound 20, 3-((7-(difluoromethyl)-2,2,3,3-tetrafluoro-1,1-dioxido-2,3-dihydrobenzo[b]thiophen-6-yl)oxy)-5-fluorobenzonitrile] — 350-fold lower, 27 nM
- a mixture of 3-fluoro-5-(((1R,3R)- 2,2,3-trifluoro-7-(methylsulfonyl)- 1-oxido-2,3- dihydrobenzo[b]thiophen-4-yl)oxy) benzonitrile and 3-fluoro-5- (((1S,3S)-2,2,3-trifluoro-7- (methylsulfonyl)-1-oxido-2,3- dihydrobenzo[b]thiophen-4-yl) oxy)benzonitrile [Compound 24b] — 2-fold higher, 18500 nM
- [O-][S@@+]1c2c(ccc(Oc3cc(F)cc(F)c3)c2C(F)F)[C@@H](F)C1(F)F (single isomer, unassigned) [Compound 9d] — 2.9-fold lower, 3270 nM
- N#Cc1cc(F)cc(Oc2ccc3c(c2Cl)S(=O)(=O)C(F)(F)C3(F)F)c1 [Compound 29, 3-((7-chloro-2,2,3,3-tetrafluoro-1,1-dioxido-2,3-dihydrobenzo [b]thiophen-6-yl)oxy)-5-fluorobenzonitrile] — 49-fold lower, 190 nM
- [O-][S@@+]1c2c(ccc(Oc3cc(F)cc(F)c3)c2C(F)F)[C@H](F)C1(F)F (single isomer, unassigned) [Compound 9a] — 9.7-fold lower, 970 nM
- N#Cc1cc(Cl)cc(Oc2ccc3c(c2C(F)F)[S@@+]([O-])C(F)(F)[C@H]3F)c1 (single isomer, unassigned) [Compound 6d] — 34-fold lower, 280 nM
- a mixture of 3-fluoro-5-(((1S,3R)- 2,2,3-trifluoro-1-oxido-7- (trifluoromethyl)-2,3- dihydrobenzo[b]thiophen-4-yl)oxy) benzonitrile and 3-fluoro-5- (((1R,3S)-2,2,3-trifluoro-1- oxido-7-(trifluoromethyl)-2,3- dihydrobenzo[b]thiophen-4-yl) oxy)benzonitrile [Compound 27b] — 14-fold lower, 670 nM
- [O-][S+]1c2c(ccc(OC3CC(F)(F)C3)c2C(F)F)C(F)(F)C1(F)F (stereo not shown) [Compound 19, 6-(3,3-difluorocyclobutoxy)-7-(difluoromethyl)-2,2,3,3-tetrafluoro-2,3-dihydrobenzo[b]-thiophene 1-oxide] — 3.5-fold lower, 2680 nM
- [O-][S@@+]1c2c(ccc(Oc3cc(F)cc(Cl)c3)c2C(F)F)[C@@H](F)C1(F)F (single isomer, unassigned) [Compound 12d] — 5.9-fold lower, 1600 nM
- N#Cc1cc(F)cc(Oc2ccc3c(c2Cl)[S+]([O-])C(F)(F)C3(F)F)c1 (stereo not shown) [Compound 28, 3-((7-chloro-2,2,3,3-tetrafluoro-1-oxido-2,3-dihydrobenzo[b]thiophen-6-yl)oxy)-5-fluorobenzonitrile] — 39-fold lower, 240 nM
- [O-][S@+]1c2c(ccc(Oc3cc(F)cc(F)c3)c2C(F)F)[C@@H](F)C1(F)F (single isomer, unassigned) [Compound 9b] — 7.8-fold lower, 1200 nM
- [O-][S@+]1c2c(ccc(Oc3cc(F)cc(F)c3)c2C(F)F)[C@H](F)C1(F)F (single isomer, unassigned) [Compound 9c] — 130-fold lower, 74 nM
- [O-][S@+]1c2c(ccc(Oc3cc(F)cc(Cl)c3)c2C(F)F)[C@@H](F)C1(F)F (single isomer, unassigned) [Compound 12b] — 11-fold lower, 880 nM
- [O-][S+]1c2c(ccc(Oc3cc(F)cc(F)c3)c2C(F)F)C(F)(F)C1(F)F (stereo not shown) [Compound 15, 7-(difluoromethyl)-6-(3,5-difluorophenoxy)-2,2,3,3-tetrafluoro-2,3-dihydrobenzo[b]-thiophene 1-oxide] — 72-fold lower, 130 nM
- [O-][S+]1c2c(ccc(Oc3cncc(F)c3)c2C(F)F)C(F)(F)C1(F)F (stereo not shown) [Compound 17, 7-(difluoromethyl)-2,2,3,3-tetrafluoro-6-((5-fluoropyridin-3-yl)oxy)-2,3-dihydrobenzo-[b]thiophene 1-oxide] — 4.4-fold lower, 2130 nM
- [O-][S@+]1c2c(ccc(Oc3cc(F)cc(Cl)c3)c2C(F)F)[C@H](F)C1(F)F (single isomer, unassigned) [Compound 12c] — 210-fold lower, 45 nM
- N#Cc1cc(F)cc(Oc2ccc3c(c2C(F)F)[S+]([O-])C(F)(F)C3=O)c1 (stereo not shown) [Compound 1, 3-((7-(difluoromethyl)-2,2-difluoro-1-oxido-3-oxo-2,3-dihydrobenzo[b]thiophen-6-yl)oxy)-5-fluorobenzonitrile] — 13-fold lower, 720 nM
- N#Cc1cncc(Oc2ccc3c(c2C(F)F)[S+]([O-])C(F)(F)C3(F)F)c1 (stereo not shown) [Compound 16, 5-((7-(difluoromethyl)-2,2,3,3-tetrafluoro-1-oxido-2,3-dihydrobenzo[b]thiophen-6-yl)oxy)nicotinonitrile] — 3.9-fold lower, 2390 nM
- N#Cc1cc(F)cc(Oc2ccc3c(c2Br)[S+]([O-])C(F)(F)C3(F)F)c1 (stereo not shown) [Compound 30, 3-((7-bromo-2,2,3,3-tetrafluoro-1-oxido-2,3-dihydrobenzo[b]thiophen-6-yl)oxy)-5-fluorobenzonitrile] — 24-fold lower, 390 nM
- N#Cc1cc(F)cc(Oc2ccc3c(c2C(F)F)[S+]([O-])C(F)(F)C3(F)F)c1 (single isomer, unassigned) [Compound 13a] — 250-fold lower, 37 nM
- N#Cc1cc(F)cc(Oc2ccc3c(c2C#N)[S+]([O-])C(F)(F)C3(F)F)c1 (stereo not shown) [Compound 31, 6-(3-cyano-5-fluorophenoxy)-2,2,3,3-tetrafluoro-2,3-dihydrobenzo [b]thiophene-7-carbonitrile 1-oxide] — 49-fold lower, 190 nM
- [O-][S@@+]1c2c(ccc(Oc3cc(F)cc(Cl)c3)c2C(F)F)[C@H](F)C1(F)F (single isomer, unassigned) [Compound 12a] — 11-fold lower, 860 nM
- a mixture of 3-fluoro-5-(((1S,3R)- 2,2,3-trifluoro-7-(methylsulfonyl)- 1-oxido-2,3- dihydrobenzo[b]thiophen-4-yl)oxy) benzonitrile and 3-fluoro-5- (((1R,3S)-2,2,3-trifluoro-7- (methylsulfonyl)-1-oxido-2,3- dihydrobenzo[b]thiophen-4-yl) oxy)benzonitrile [Compound 24a] — within 1.5-fold, 8900 nM
- [O-][S+]1c2c(ccc(Oc3cncc(Cl)c3)c2C(F)F)C(F)(F)C1(F)F (stereo not shown) [Compound 18, 6-((5-chloropyridin-3-yl)oxy)-7-(difluoromethyl)-2,2,3,3-tetrafluoro-2,3-dihydrobenzo-[b]thiophene 1-oxide] — 5.2-fold lower, 1800 nM
- a mixture of 3-(((1S,3S)-7- (difluoromethyl)-2,2,3-trifluoro-1- oxido-2,3-dihydrobenzo- [b]thiophen-6-yl)oxy)-5- fluorobenzonitrile and 3-(((1R,3R)- 7-(difluoromethyl)-2,2,3- trifluoro-1-oxido-2,3-dihydrobenzo [b]thiophen-6-yl)oxy)-5- fluorobenzonitrile [Compound 3b] — 59-fold lower, 160 nM
- a mixture of 3-(((1S,3R)-7- (difluoromethyl)-2,2,3-trifluoro-1- oxido-2,3-dihydrobenzo- [b]thiophen-6-yl)oxy)-5- fluorobenzonitrile and 3-(((1R,3S)- 7-(difluoromethyl)-2,2,3- trifluoro-1-oxido-2,3-dihydrobenzo [b]thiophen-6-yl)oxy)-5- fluorobenzonitrile [Compound 3a] — 2.7-fold lower, 3500 nM
